In this assay the test system is inflammatory lesions in patient with acne. The experiment in a line: 2-(2-ethoxyethoxy)ethanol tested against an active ingredient (for example dapsone gel) in patients with acne. In kind it is in vivo, human. The source says:
Without being bound to any theory, we believe that the mechanism for this action is the 2-(2-ethoxyethoxy)ethanol may fluidize the lipids on the skin, thereby retarding the formation of microcomedones. If 2-(2-ethoxyethoxy)ethanol keep lipids from “gluing together” the desquamated keratinocytes, the number of clogged follicles, and subsequently the number of inflammatory lesions, would potentially be reduced. 2-(2-ethoxyethoxy)ethanol in the compositions of the present invention provides a means for stopping the formation of acne at its source; lipids and desquamated keratinocytes clogging pores leading to inflammation and formation of comedones. The compositions of the present invention may be active in clearing acne if used as a routine cleanser.

For `CCOCCOCCO` [2-(2-ethoxyethoxy)ethanol], the “number of inflammatory lesions” value is on record as “appears to have activity to reduce the number of inflammatory lesions”.

The record behind these values is US20220331269A1, “COMPOSITIONS FOR TREATING ACNE” (Botanix Pharmaceuticals Ltd., priority 2017, published 2022).
